In ChEMBL document CHEMBL1159059, “Fluoroalkene modification of mercaptoacetamide-based histone deacetylase inhibitors” (Bioorg Med Chem, 2010):

target: Histone deacetylase; test: Inhibition of HDAC in human HeLa cell nuclear extract by fluorescence assay; assay type: cell-based

Row | IC50 [nM] | Structure (SMILES)
1 | 360 | O=C(CCCCC/C=C(\F)CS)Nc1ccccc1
2 | 290 | O=C(NCCCCC/C=C(\F)CS)c1ccccc1
3 | 510 | O=C(CCCC/C=C(\F)CS)Nc1ccccc1
